Measured values from US20260250257A1, “ANTIBACTERIAL AND SYNERGISTIC ACTIVE COMPOUND AND USE THEREOF” (EAST CHINA UNIVERSITY OF SCIENCE AND TECHNOLOGY, priority 2023, published 2026).
Converted amounts (≈) assume the structure as drawn.

Tests used:
Type in all cases: cell-based
[1] = tested on: ATCC19606 strain (Acinetobacter baumannii); experiment: Broth microdilution, antibacterial activity of the compound used alone
Text: (§1) The broth microdilution method was used to test the antibacterial effects of the compounds of the present invention against various Gram-negative bacterial strains when used alone.

[2] = tested on: ATCC13883 strain (Klebsiella pneumoniae); experiment: as above
Text: as §1

[3] = tested on: ATCC9027 strain (Pseudomonas aeruginosa); experiment: as above
Text: as §1

[4] = tested on: ATCC25922 strain (Escherichia coli); experiment: as above
Text: as §1

[5] = tested on: ATCC19606 strain (Acinetobacter baumannii); experiment: Checkerboard antibacterial synergistic activity test with polymyxin E (FIC); set-up: key: FIC≤0.5 synergy; 0.5–1 additive; 1–2 indifferent; ≥2 antagonism; conditions: combined with polymyxin E
Procedure: (§2) Polymyxin E was diluted in sterile MH broth medium to concentrations of 16, 8, 4, 2, 1, 0.5, 0.25, 0.125, 0.0625, 0.031, and 0.015 μg/ml, and the drug to be tested was diluted to concentrations of 256, 128, 64, 32, 16, 8, and 4 μg/ml. According to the checkerboard method, combinations of the drug to be tested and polymyxin at different concentrations in ascending order were placed into a 96-well plate, and corresponding blank control groups were set up. 50 μl of the drug solution was added to each well, then 100 μl of bacterial liquid was added, and incubated in a 37° C. incubator for 16 hours. […] Calculation and judgment criteria:
(§3) Fractional Inhibitory Concentration (FIC) is calculated as follows: […]
(§4) Judgment criteria: FIC≤0.5: synergistic effect; 0.5<FIC<1: additive effect; 1<FIC<2: indifferent effect; FIC≥2: antagonistic effect.
(§5) In the table: ATCC19606 strain is Acinetobacter baumannii, ATCC25922 strain is Escherichia coli, ATCC13883 strain is Klebsiella pneumoniae, ATCC9027 strain is Pseudomonas aeruginosa. All four strains were purchased from ATCC.

[6] = tested on: ATCC13883 strain (Klebsiella pneumoniae); experiment: as above; set-up: key: FIC≤0.5 synergy; 0.5–1 additive; 1–2 indifferent; ≥2 antagonism; conditions: combined with polymyxin E
Procedure: as §2, §3, §4, §5

[7] = tested on: ATCC9027 strain (Pseudomonas aeruginosa); experiment: as above; set-up: key: FIC≤0.5 synergy; 0.5–1 additive; 1–2 indifferent; ≥2 antagonism; conditions: combined with polymyxin E
Procedure: as §2, §3, §4, §5

[8] = tested on: ATCC25922 strain (Escherichia coli); experiment: as above; set-up: key: FIC≤0.5 synergy; 0.5–1 additive; 1–2 indifferent; ≥2 antagonism; conditions: combined with polymyxin E
Procedure: as §2, §3, §4, §5

| Structure (SMILES) | Antibacterial activity of the compound of Formula I, ATCC19606 [1] [µg/mL] | Antibacterial activity of the compound of Formula I, ATCC13883 [2] [µg/mL] | Antibacterial activity of the compound of Formula I, ATCC9027 [3] [µg/mL] | Antibacterial activity of the compound of Formula I, ATCC25922 [4] [µg/mL] | Synergistic activity (FIC value) ATCC19606 [5] | Synergistic activity (FIC value) ATCC13883 [6] | Synergistic activity (FIC value) ATCC9027 [7] | Synergistic activity (FIC value) ATCC25922 [8] | MIC ([1]; read-out: Antibacterial activity of the compound of Formula I, ATCC19606) [µg/mL] | MIC ([2]; read-out: Antibacterial activity of the compound of Formula I, ATCC13883) [µg/mL] | MIC ([3]; read-out: Antibacterial activity of the compound of Formula I, ATCC9027) [µg/mL] | MIC ([4]; read-out: Antibacterial activity of the compound of Formula I, ATCC25922) [µg/mL] |
| --- | --- | --- | --- | --- | --- | --- | --- | --- | --- | --- | --- | --- |
| Cc1ccc(O)c(-c2c[nH]c(N=C3NCCCN3)n2)c1 [Compound I-170] | 256 | 256 | 256 | 256 | 0.12 | 0.31 | 0.31 | 0.38 | – | – | – | – |
| C[Si](C)(C)c1ccc(-c2csc(N=C(N)N)n2)cc1 [Compound I-22] | 256 | 256 | 256 | 256 | 0.75 | 0.38 | 0.63 | 0.5 | – | – | – | – |
| NC(N)=Nc1nc(-c2c(F)cccc2-c2nccs2)cs1 [Compound I-80] | 256 | 256 | 256 | 256 | 0.52 | 0.52 | 1.25 | 0.63 | – | – | – | – |
| CC(C)c1ccc(-c2csc(N=C(N)N)n2)cc1 [Compound I-17] | 256 | 256 | 256 | 256 | 0.28 | 0.25 | 0.63 | 0.5 | – | – | – | – |
| NC(N)=Nc1nc(-c2ccccc2Oc2ccc(I)cc2I)cs1 [Compound I-87] | 256 | 256 | 256 | 256 | 0.03 | 0.16 | 0.28 | 0.18 | – | – | – | – |
| Fc1sc(N=C2NCCCN2)nc1-c1cc(Br)cc(Br)c1 [Compound I-177] | 256 | 256 | 256 | 256 | 0.5 | 1.25 | 1.25 | 0.63 | – | – | – | – |
| Cc1ccccc1Oc1ccccc1-c1csc(N=C(N)N)n1 [Compound I-81] | 256 | 256 | 256 | 256 | 0.31 | 0.09 | 0.06 | 0.14 | – | – | – | – |
| NC(N)=Nc1nc(-c2cccc3cc(Cl)ccc23)co1 [Compound I-64] | 256 | 256 | 256 | 256 | 0.52 | 0.52 | 1.25 | 0.63 | – | – | – | – |
| NC(N)=Nc1nc(-c2ccc(OCc3ccccc3)cc2)cs1 [Compound I-9] | 256 | 256 | 256 | 256 | 0.13 | 0.16 | 0.31 | 0.26 | – | – | – | – |
| Cc1ccccc1Oc1cccc(-c2csc(N=C(N)N)n2)c1 [Compound I-91] | 256 | 128 | 64 | 128 | 0.04 | 0.19 | 0.52 | 0.26 | – | – | – | – |
| NC(N)=Nc1nc(-c2cccc(NC(=O)c3ccccc3)c2)cs1 [Compound I-109] | – | – | – | – | 1.25 | 1.25 | 1.25 | 0.27 | 256 (≈ 759 µM) | 256 (≈ 759 µM) | 256 (≈ 759 µM) | 256 (≈ 759 µM) |
| NC(N)=Nc1nc(-c2ccccc2C(F)(F)F)c[se]1 [Compound I-41] | 256 | 256 | 256 | 256 | 0.5 | 0.38 | 0.63 | 0.38 | – | – | – | – |
| NC(N)=Nc1nc(-c2cccc3ncsc23)co1 [Compound I-71] | 256 | 256 | 256 | 256 | 0.13 | 0.19 | 1.25 | 0.52 | – | – | – | – |
| CCc1[nH]c(N=C(N)N)nc1-c1cccc2c(C)cccc12 [Compound I-60] | 256 | 256 | 256 | 256 | 0.12 | 0.31 | 0.31 | 0.38 | – | – | – | – |
